How the values were obtained:
Type in all cases: in vivo
[1] = test system: parent elite stiff stalk inbred corn; test: Postemergence herbicide application in greenhouse: fresh shoot weight and visual injury; conditions: postemergence, 200 g/ha (glyphosate 3472 g ae/ha, glufosinate ammonium 1870 g/ha), mean of four replications; for % Visual Injury: 0% no injury, 100% plant death; for Fresh Weight: weighed 2 weeks after treatment, untreated 76.4 g
[2] = test system: Heterozygous GAT-HRA corn; test: Preemergence herbicide application in greenhouse: fresh shoot weight and visual injury; conditions: preemergence, 200 g/ha, mean of four replications; for % Visual Injury: 0% no injury, 100% plant death; for Fresh Weight: fresh shoots weighed 4 weeks after treatment, untreated 47.0 g
[3] = test system: parent elite stiff stalk inbred corn; test: as above; conditions: preemergence, 200 g/ha, mean of four replications; for % Visual Injury: 0% no injury, 100% plant death; for Fresh Weight: fresh shoots weighed 4 weeks after treatment, untreated 36.7 g
[4] = test system: Heterozygous GAT-HRA corn; test: Postemergence herbicide application in greenhouse: fresh shoot weight and visual injury; conditions: postemergence, 200 g/ha (glyphosate 3472 g ae/ha, glufosinate ammonium 1870 g/ha), mean of four replications; for % Visual Injury: 0% no injury, 100% plant death; for Fresh Weight: weighed 2 weeks after treatment, untreated 98.8 g

Compound | % Visual Injury [1] [%] | Fresh Weight [1] [g] | % Visual Injury [2] [%] | Fresh Weight [2] [g] | % Visual Injury [3] [%] | Fresh Weight [3] [g] | % Visual Injury [4] [%] | Fresh Weight [4] [g]
COc1cc(OC)nc(NC(=O)NS(=O)(=O)c2ncccc2OCC(F)(F)F)n1 [Trifloxysulfuron Na^+, Trifloxysulfuron] | 100 | 1.0 | 0 | 50.8 | 100 | 0.0 | 29 | 86.6
COC(=O)c1cccc(C)c1S(=O)(=O)NC(=O)Nc1nc(OCC(F)(F)F)nc(N(C)C)n1 [Triflusulfuron-methyl] | 100 | 2.1 | 5 | 53.5 | 100 | 26.3 | 8 | 110.9
Imazamethabenz-methyl | 11 | 66.9 | 15 | 48.5 | 61 | 36.2 | 16 | 95.0
